“Also recorded” adds a separate entry of the source.
What was measured:
[1] = target: T1, recombinant mouse acetylcholinesterase (rMAChE) (Mus musculus, UniProt P21836); experiment: Colorimetric; assay type: biochemical; conditions: tested at 50 µM
T1 sequence (P21836 with tags, fused parts or gaps limits assumed): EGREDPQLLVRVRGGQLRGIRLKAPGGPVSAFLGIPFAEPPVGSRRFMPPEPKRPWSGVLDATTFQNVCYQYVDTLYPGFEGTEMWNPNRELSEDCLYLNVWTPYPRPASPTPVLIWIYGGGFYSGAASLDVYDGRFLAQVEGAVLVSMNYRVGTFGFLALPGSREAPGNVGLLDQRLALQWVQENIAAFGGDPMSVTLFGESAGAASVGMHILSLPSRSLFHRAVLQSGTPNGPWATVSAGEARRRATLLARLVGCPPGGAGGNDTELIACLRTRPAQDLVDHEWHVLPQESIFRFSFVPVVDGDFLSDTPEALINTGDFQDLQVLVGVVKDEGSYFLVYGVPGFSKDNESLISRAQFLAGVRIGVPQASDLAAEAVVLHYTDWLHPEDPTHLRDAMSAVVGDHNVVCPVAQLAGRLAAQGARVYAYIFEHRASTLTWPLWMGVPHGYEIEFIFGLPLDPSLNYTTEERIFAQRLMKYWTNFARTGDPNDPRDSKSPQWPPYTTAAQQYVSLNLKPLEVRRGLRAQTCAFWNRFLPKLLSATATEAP

[2] = target: electric eel acetylcholinesterase (EEAChE) (Electrophorus electricus, UniProt O42275); experiment: Colorimetric; assay type: biochemical; conditions: tested at 50 µM
Chain of electric eel acetylcholinesterase (EEAChE) (O42275 24-633): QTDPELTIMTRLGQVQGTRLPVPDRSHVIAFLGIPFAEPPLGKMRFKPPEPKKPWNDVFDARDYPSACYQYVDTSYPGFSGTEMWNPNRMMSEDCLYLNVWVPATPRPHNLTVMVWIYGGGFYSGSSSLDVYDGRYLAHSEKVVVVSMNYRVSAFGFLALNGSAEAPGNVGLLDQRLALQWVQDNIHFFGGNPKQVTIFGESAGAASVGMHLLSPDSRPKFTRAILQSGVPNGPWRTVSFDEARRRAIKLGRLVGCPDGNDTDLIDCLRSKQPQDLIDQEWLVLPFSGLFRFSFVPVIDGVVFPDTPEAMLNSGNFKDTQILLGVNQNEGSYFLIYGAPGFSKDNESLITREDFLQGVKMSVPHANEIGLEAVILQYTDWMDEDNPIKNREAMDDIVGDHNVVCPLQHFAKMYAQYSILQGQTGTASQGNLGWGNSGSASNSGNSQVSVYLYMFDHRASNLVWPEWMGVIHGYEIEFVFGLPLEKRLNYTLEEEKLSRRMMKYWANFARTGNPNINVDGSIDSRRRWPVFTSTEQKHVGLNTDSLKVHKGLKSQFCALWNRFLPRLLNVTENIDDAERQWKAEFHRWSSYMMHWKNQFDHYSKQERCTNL

EEAChE [3] = target: T2, EEAChE (Electrophorus electricus, UniProt O42275); conditions: read-out: IC50 against EEAChE; competitive inhibition; cited from earlier work
T2 sequence (O42275 24-633): as above

EEAChE [4] = target: T2, EEAChE; conditions: Lineweaver–Burk plot

## 9-[2(or 4)-[[[-[-N-Propynylsulfonamide]-4(or 2)-sulfophenyl]-2,3,6,7,12,13,16,17–octahydro-1H, 5H, 11H, 15H-xantheno[2,3,4-ij:5,6,7i′j′]-diquinolizium-18-inner salt [Compound 7]
[1]
  Inhibition of rMAChE (in words): reversibly inactivate
[1]; listed as Texas Red
  Inhibition of rMAChE (in words): inhibited
[2]
  Inhibition of EEAChE (in words): reversibly inactivate
[2]; listed as Texas Red
  Inhibition of EEAChE (in words): inhibited

## C#CCNS(=O)(=O)c1cccc2c(N(C)C)cccc12 [Compound 1, 5-(Dimethylamino)-N-(-2-propynyl)-1-naphthalenesulfonamide]
[1]; listed as dansyl
  Inhibition of rMAChE (in words): not inhibitors; also recorded: inactive
[2]; listed as dansyl
  Inhibition of EEAChE (in words): not inhibitors; also recorded: inactive

## C#CCNS(=O)(=O)c1ccc2ccc3cccc4ccc1c2c34 [Compound 2, 1-N-(-2-Propynyl)-pyrenesulfonamide]
[1]
  Inhibition of rMAChE (in words): inactive
[2]
  Inhibition of EEAChE (in words): inactive

## C#CCNS(=O)(=O)c1ccc(N=Nc2ccc(N(C)C)cc2)cc1 [Compound 3, 4-(4-Dimethylamino-phenylazo)-N-prop-2-ynyl benzenosulfonamide]
[1]; listed as dabsyl
  Inhibition of rMAChE (in words): not inhibitors; also recorded: inactive
[2]; listed as dabsyl
  Inhibition of EEAChE (in words): not inhibitors; also recorded: inactive

## C#CCNC(=O)c1cc2ccc(N(CC)CC)cc2oc1=O [Compound 4, 2H-1-Benzopyran-7-N-diethyl-2-oxo-3-propynylcarboxylamide]
[1]
  Inhibition of rMAChE (in words): inhibited
[1]; listed as diethylaminocoumarin
  Inhibition of rMAChE (in words): some inhibitory ability
[2]
  Inhibition of EEAChE (in words): not an inhibitor

## C#CCNC(=O)c1cc2ccc(OC)cc2oc1=O [Compound 5, 2H-1-Benzopyran-7-methoxy-2-oxo-3-N-propynylcarboxylamide]
[1]; listed as methoxycoumarin
  Inhibition of rMAChE (in words): not inhibitors; also recorded: inactive
[2]; listed as methoxycoumarin
  Inhibition of EEAChE (in words): not inhibitors; also recorded: inactive

## c1cc2ccc3cccc4ccc(c1)c2c34 [pyrene]
EEAChE [3]
  IC50: 5.22 µM

## Xanthylium, 9-[-2-sulfophenyl]-3,6-bis(diethylamino)-4-sulfonamide [Compound 6]
[1]
  Inhibition of rMAChE (in words): reversibly inactivate
[1]; listed as Lissamine
  Inhibition of rMAChE (in words): inhibited
[2]
  Inhibition of EEAChE (in words): reversibly inactivate
[2]; listed as Lissamine
  Inhibition of EEAChE (in words): inhibited
EEAChE [4]
  Type of inhibition: mixed-type competitive and noncompetitive inhibition

From PMC3253716 (Journal of Enzyme Inhibition and Medicinal Chemistry, 2010)
